# According to patent US9139581B2 (PORTOLA PHARMACEUTICALS, INC., priority 2008, dated 2015):
# Biological target: T1, full length active recombinant SYK enzyme (Homo sapiens, UniProt P43405)
# T1 construct: full length active recombinant SYK enzyme (Millipore, Calif.); purchased Millipore
# Assay: Inhibition of Syk tyrosine phosphorylation activity (LANCE TR-FRET)
# Format: biochemical
# Details: Table 3; 1 nM SYK, 100 μM ATP; read-out: Syk IC50 code
# Protocol: The in vitro and in vivo human syk activities of the inventive compounds can be determined by various procedures known in the art, such as a test for their ability to inhibit the activity of human plasma syk. […] Inhibition of Syk Tyrosine Phosphorylation Activity Potency of candidate molecules for inhibiting syk tyrosine phosphorylation activity is assessed by measuring the ability of a test compound to inhibit syk-mediated tyrosine phosphorylation of a syk-specific substrate. SYK tyrosine phosphorylation activity is measured using the LANCETM Technology developed by Perkin Elmer Life and Analytical Sciences (Boston, Mass.). LANCETM refers to homogeneous time resolved fluorometry applications using techniques such as time-resolved fluorescence resonance energy transfer assay (TR-FRET) (see generally for procedures in Perkin Elmer Application Note-How to Optimize a Tyrosine Kinase Assay Using Time Resolved Fluorescence-Based LANCE Detection, wwww.perkinelmer.com/lifesciences). The assay principle involves detection of a phosphorylated substrate using energy transfer from a phosphospecific europium-labeled antibody to streptavidin-allophycocyanin as an acceptor. To test the ability of candidate molecules to inhibit SYK tyrosine phosphorylation activity, molecules are reconstituted in 30% DMSO and serially diluted 1:3 with the final dilution containing DMSO in the absence of the candidate molecule. The final DMSO concentration in the assay is 3%. Kinase assays are performed as a two part reaction. The first reaction is a kinase reaction and which comprises of a candidate molecule, full length active recombinant SYK enzyme (Millipore, Calif.) and biotin-labeled SYK-specific substrate biotin-[…]-OH. The second reaction involves termination of the kinase reaction and the simultaneous addition of the detection reagents-europium-labeled anti-phosphotyrosine reagent (Eu-W1024-PY100, Perkin Elmer, Boston, Mass.) and Streptavidin-Allophycocyanin detection reagent (SA-APC, Prozyme, Calif.). The kinase reaction is performed in a black U-bottom 96-well microtitre plate. […] The reaction is allowed to proceed for 1 hour at room temperature. […] The detection reagents are added to the reaction mixture at the following dilutions-1:500 for Eu-W1024-PY100 and 1:250 for SA-APC. The kinase reaction is terminated by the addition of 50 μL quench buffer containing the detection reagents. The detection is allowed to proceed for 1 hr at room temperature. Detection of the phosphorlated substrate in the absence and presence of inhibitors is measured in the TR-FRET instrument, Analyst HT ([…], Sunnyvale, Calif.) and the condition for measurements are set up using CriterionHost Release 2.0 ([…], Sunnyvale, Calif.). […] IC50s were derived by non-linear regression analysis.
row,IC50 [nM],SMILES
1,100 to 1000,"CN1C(=O)CCc2cc(Nc3nc(NCc4ccccc4)c4c(-c5ccncc5)c[nH]c4n3)ccc21 [Example 114, 6-(4-(benzylamino)-5-(pyridin-4-yl)-7H-pyrrolo[2,3-d]pyrimidin-2-ylamino)-1-methyl-3,4-dihydroquinolin-2(1H)-one]"
2,10 to 100,"CCOC(=O)CN1C(=O)CCc2cc(Nc3nc(NC4CCC4)c4cc[nH]c4n3)ccc21 [Example 69, Ethyl 2-(6-(4-(cyclobutyamino)-7H-pyrrolo-[2,3-d]pyrimidine-2-ylamino)-2-oxo-3,4-dihydroquinolin-1(2H)-yl)acetate]"
3,10 to 100,"CC(=O)N(C)c1ccc(Nc2nc(NCCCCN)c3cc[nH]c3n2)cc1 [Example 62, N-(4-(4-(4-aminobutylamino)-7H-pyrrolo[2,3-d]pyrimidin-2-ylamino)phenyl)-N-methylacetamide]"
4,> 1000,"CC(=O)N1CCN(c2ccc(Nc3ncc(C(N)=O)c(N4CCC(CNC(N)=O)CC4)n3)cc2)CC1 [Example 130, 2-(4-(4-acetylpiperazin-1-yl)phenylamino)-4-(4-(ureidomethyl)piperidin-1-yl)pyrimidine-5-carboxamide]"
5,1 to 10,"Clc1c[nH]c2nc(Nc3ccc4cn[nH]c4c3)nc(NC3CCC3)c12 [Example 50, 5-chloro-N4-cyclobutyl-N2-(1H-indazol-6-yl)-7H-pyrrolo[2,3-d]pyrimidine-2,4-diamine]"
6,100 to 1000,CN(C)CCCNC(=O)c1ccc(Nc2nc(NC3CCC3)c3cc[nH]c3n2)cc1 [Example 85]
7,> 1000,"N#CCC(=O)N1CCCC(Nc2nc(Nc3ccc(C(N)=O)cc3)nc3[nH]ccc23)C1 (stereo not shown) [Example 110, 4-(4-(1-(2-cyanoacetyl)piperidin-3-ylamino)-7H-pyrrolo[2,3-d]pyrimidin-2-ylamino)benzamide]"
8,100 to 1000,"NC(=O)NCC1CCN(c2nc(Nc3ccc4c(c3)CCC(=O)N4)ncc2F)CC1 [Example 37, 1-((1-(5-fluoro-2-(2-oxo-1,2,3,4-tetrahydroquinolin-6-ylamino)pyrimidin-4-yl)piperidin-4-yl)methyl)urea]"
9,100 to 1000,"CC(=O)N1CCN(c2ccc(Nc3ncc(F)c(N[C@H]4CC[C@@H](N)CC4)n3)cc2)CC1 [Example 142, 1-(4-(4-(4-((1s,4s)-4-aminocyclohexylamino)-5-fluoropyrimidin-2-ylamino)phenyl)piperazin-1-yl)ethanone]"
10,> 1000,"CC(=O)N1CCN(c2ccc(Nc3ncc(F)c(N4CCC(CO)CC4)n3)cc2)CC1 [Example 38, 1-(4-(4-(5-fluoro-4-(4-(hydroxymethyl)piperidin-1-yl)pyrimidin-2-ylamino)phenyl)piperazin-1-yl)ethanone]"

# More lines, now with the values behind:
row,SMILES,IC50 [nM]
1,"NC(=O)c1cnc(-[n+]2ccc(-c3ccc(N)cc3)cc2)nc1NC1CC1 [Example 5, 4-(4-aminophenyl)-1-(5-carbamoyl-4-(cyclopropylamino)pyrimidin-2-yl)pyridinium]",> 1000
2,"CC(=O)N1CCN(c2ccc(Nc3nc(N[C@@H](C)CO)c4cc[nH]c4n3)cc2)CC1 [Example 99A, (S)-1-(4-(4-(4-(1-hydroxypropan-2-ylamino)-7H-pyrrolo[2,3-d]pyrimidin-2-ylamino)phenyl)piperazin-1-yl)ethanone]",100 to 1000
3,"O=C(O)CN1C(=O)CCc2cc(Nc3nc(NC4CCC4)c4cc[nH]c4n3)ccc21 [Example 70, 2-(6-(4-(cyclobutyamino)-7H-pyrrolo[2,3-d]pyrimidine-2-ylamino)-2-oxo-3,4-dihydroquinolin-1(2H)-yl)acetic acid]",10 to 100
4,"c1cc2c(NC3CCNCC3)nc(Nc3ccc4cn[nH]c4c3)nc2[nH]1 [Example 58, N2-(1H-indazol-6-yl)-N4-(piperidin-4-yl)-7H-pyrrolo[2,3-d]pyrimidine-2,4-diamine]",100 to 1000
5,"Brc1c[nH]c2nc(Nc3ccc4cn[nH]c4c3)nc(NC3CCC3)c12 [Example 49, 5-bromo-N4-cyclobutyl-N2-(1H-indazol-6-yl)-7H-pyrrolo[2,3-d]pyrimidine-2,4-diamine]",1 to 10
6,"CC(=O)N1CCN(c2ccc(Nc3ncc(F)c(N4CCC(NC(=O)OCc5ccccc5)CC4)n3)cc2)CC1 [Example 127, Benzyl 1-(2-(4-(4-acetylpiperazin-1-yl)phenylamino)-5-fluoropyrimidin-4-yl)piperidin-4-ylcarbamate]",> 1000
7,"CC(=O)N1CCN(c2ccc(Nc3ncc(F)c(N4CCC(CC(N)=O)CC4)n3)cc2)CC1 [Example 126, 2-(1-(2-(4-(4-acetylpiperazin-1-yl)phenylamino)-5-fluoropyrimidin-4-yl)piperidin-4-yl)acetamide]",100 to 1000
8,"NCC1CCN(c2nc(Nc3ccc4c(c3)CCC(=O)N4)ncc2Br)CC1 [Example 132, 6-(4-(4-(aminomethyl)piperidin-1-yl)-5-bromopyrimidin-2-ylamino)-3,4-dihydroquinolin-2(1H)-one]",10 to 100
9,"CC(=O)N1CCN(c2ccc(Nc3nc(N[C@H](C)CO)c4cc[nH]c4n3)cc2)CC1 [Example 98A, (R)-1-(4-(4-(4-(1-hydroxypropan-2-ylamino)-7H-pyrrolo[2,3-d]pyrimidin-2-ylamino)phenyl)piperazin-1-yl)ethanone]",100 to 1000
10,"O=C1CCc2cc(Nc3ncc(F)c(N4CCC(CO)CC4)n3)ccc2N1 [Example 39, 6-(5-fluoro-4-(4-(hydroxymethyl)piperidin-1-yl)pyrimidin-2-ylamino)-3,4-dihydroquinolin-2(1H)-one]",100 to 1000
11,"CCOC(=O)CC(N)C1CCN(c2nc(Nc3ccc4c(c3)CCC(=O)N4)ncc2F)CC1 (stereo not shown) [Example 134, Ethyl 3-amino-3-(1-(5-fluoro-2-(2-oxo-1,2,3,4-tetrahydroquinolin-6-ylamino)pyrimidin-4-yl)piperidin-4-yl)propanoate]",100 to 1000
12,"CN1C(=O)CCc2cc(Nc3nc(NCc4ccccc4)c4c(C#N)c[nH]c4n3)ccc21 [Example 115, 4-(Benzylamino)-2-(1-methyl-2-oxo-1,2,3,4-tetrahydroquinolin-6-ylamino)-7H-pyrrolo[2,3-d]pyrimidine-5-carbonitrile]",100 to 1000
13,"CC(=O)N(C)c1ccc(Nc2nc(Nc3cccc(CN)c3)c3cc[nH]c3n2)cc1 [Example 97, N-(4-(4-(3-(aminomethyl)phenylamino)-7H-pyrrolo[2,3-d]pyrimidin-2-ylamino)phenyl)-N-methylacetamide]",100 to 1000
14,"CNc1nc(Nc2ccc(N(C)C(=O)C3CC3)cc2)nc2[nH]ccc12 [Example 82, N-(4-(4-(methylamino)-7H-pyrrolo[2,3-d]pyrimidin-2-ylamino)phenyl)-N-methylcyclopropanecarboxamide]",100 to 1000
15,"CN(C(=O)CCO)c1ccc(Nc2nc(NC3CCC3)c3cc[nH]c3n2)cc1 [Example 86, N-(4-(4-(cyclobutylamino)-7H-pyrrolo[2,3-d]pyrimidin-2-ylamino)phenyl)-3-hydroxy-N-methypropanamide]",10 to 100
16,"CN(C(=O)CO)c1ccc(Nc2nc(NC3CC3)c3cc[nH]c3n2)cc1 [Example 75, N-(4-(4-(cyclopropylamino)-7H-pyrrolo[2,3-d]pyrimidin-2-ylamino)phenyl)-2-hydroxy-N-methylacetamide]",10 to 100

# Same assay, conditions: Table 4; 1 nM SYK, 100 μM ATP; read-out: syk IC50
row,IC50 [nM],SMILES
1,> 1000,"O[C@H]1CCN(c2nc(Nc3ccc(N4CCNCC4)cc3)nc3[nH]ccc23)C1 [Example 12, (S)-1-(2-(4-(piperazin-1-yl)phenylamino)-7H-pyrrolo[2,3-d]pyrimidin-4-yl)pyrrolidin-3-ol]"
2,> 1000,"CC(=O)N1CCN(c2ccc(Nc3ncc(C(N)=O)c(N4CCC(CN)CC4)n3)cc2)CC1 [Example 25, 2-(4-(4-acetylpiperazin-1-yl)phenylamino)-4-(4-(aminomethyl)piperidin-1-yl)pyrimidine-5-carboxamide]"
3,> 1000,"CC(=O)N1CCN(c2ccc(Nc3ncc(F)c(N4CCCC(C(N)=O)C4)n3)cc2)CC1 (stereo not shown) [Example 27, 1-(2-(4-(4-acetylpiperazin-1-yl)phenylamino)-5-fluoropyrimidin-4-yl)piperidine-3-carboxamide]"
4,> 1000,"c1cc2c(N3CCCCC3)nc(Nc3ccc(N4CCNCC4)cc3)nc2[nH]1 [Example 19, N-(4-(piperazin-1-yl)phenyl)-4-(piperidin-1-yl)-7H-pyrrolo[2,3-d]pyrimidin-2-amine]"
5,> 1000,"NC[C@@H]1CCCN1c1nc(Nc2ccc3cn[nH]c3c2)nc2[nH]ccc12 [(S)-4-(2-(aminomethyl)pyrrolidin-1-yl)-N-(1H-indazol-6-yl)-7H-pyrrolo[2,3-d]pyrimidin-2-amine]"
